The numbers were not newly measured in patent US20140271573A1, “PHARMACO-CELLULAR THERAPEUTIC METHOD FOR THE TREATMENT OF MUSCULAR DYSTROPHIES” (PONTIFICIA UNIVERSIDAD CATÓLICA DE CHILE, priority 2013, published 2014), which cites them from elsewhere.

One data set has as its system MES-13 cells. The settings on record: cited from earlier work.
For a further data set, the system named is dystrophin. The settings on record: cited from earlier work.
Where [1] appears, read: 12 DMD patients, six-month period.

In the case of `C=C1CCC2C(C)(CO)C(O)CCC2(C)C1C=CC1=CCOC1=O` (stereo not shown) [AP2, 14-deoxy-11,12-didehydroandrographolide], the “reduction of caspase-3, TGF-β1 and PAI-1, relative activity” value in the data set on MES-13 cells (MES-13 cells, AP2 compared with AP1) was “potent activity than AP1”. Further, the “phenotypes indicating diabetic nephropathy in MES-13 cells” value in the data set on MES-13 cells (MES-13 cells) is “reduces”. Further, in the data set on MES-13 cells, the “antioxidant ability in a cellular environment” value is listed as “do not have antioxidant ability”. Moreover, the intracellular oxidative states entry in the data set on MES-13 cells (high glucose cultured MES-13 cells) was “reduced”.
gentamicin: in the data set with dystrophin (setting [1]), the “clinical benefits in DMD patients” value is “no clinical benefits were observed” and the “patients with dystrophin expression detected” value is 6 of the 12. In addition, the “dystrophin expression in muscle fibers, of normal levels” value in the data set on dystrophin (mdx mice and humans) is reported as 20%.
